As usually defined, the viability is a read-out of living cells in per cent, often relative to untreated cells.

Viability data for 77 compounds are collected here from PMC12040169 (PLOS Biology, 2025).

This data set in a line: in vitro. The settings on record: human, hela cells, % viability.

Molecules are shown by their SMILES.

Take `CCOc1ccc2nc(NS(=O)(=O)c3cc(C(=O)O)c(Cl)cc3Cl)sc2c1` [CBK299789]: the viability at 28.5 h, 10 µM is 109%.
For the compound `COc1cc(-c2cncc(N3CCCC3CO)n2)cc(OC)c1OC` (centres unmarked) [CBK065389], the viability at 28.5 h, 10 µM stood at 104%.
Turning to `CCCC(CCC)C(=O)Nc1ccc(NC(=O)c2ccco2)c(C)c1` [CBK058263], the viability at 28.5 h, 10 µM was 91.9%.
In the case of `Cc1ccc(Cl)cc1NC(=O)CCn1cnc2ccccc2c1=O` [CBK270103], the viability at 28.5 h, 10 µM worked out at 95.1%.
Turning to `Cc1nn(C(C)CC(=O)N2CCCC(CN(C)C)C2)c(C)c1Cl` (centres unmarked) [CBK282137], the viability at 28.5 h, 10 µM turned out to be 107%.
Same read-out and setting: the result for `OCCCc1nc2ccccc2n1CCOc1ccccc1` [CBK297728] reads 97.8%.
The same measure, in the same setting: the same measure for `COc1cccc(Oc2cnc(-c3ccc(C(=O)N(C)C)cc3)c(N)n2)c1` [CBK145185]: 95.5%; for `CN(CCN1CCCCC1=O)c1nccc(CCC(F)(F)F)n1` [CBK307218]: 106%.
`Cc1cc(/C=C2\C(=O)NC(=S)N(c3ccccc3)C2=O)c(C)n1-c1cc(C(=O)O)cc(C(=O)O)c1` [CBK263975]: the viability at 28.5 h, 10 µM (bulk resorufin, single well) is 105%.
Consider `O=C(O)c1cccc(CSc2nnc(-c3ccccc3)c(-c3ccccc3)n2)c1` [CBK269165], for which the viability at 28.5 h, 10 µM stood at 97.6%.
As for `O=C(Nc1ccccc1C(F)(F)F)N(Cc1ccccc1C(F)(F)F)CC1CCNCC1` [CBK049744], the viability at 28.5 h, 10 µM turned out to be 112%.
As to `CC(C)CC(CC(C)C)OCC(=O)NCC1(c2ccc3ccccc3c2)CCC1` [CBK067404], the viability at 28.5 h, 10 µM was found to be 109%.
As for `c1cn2c(-c3ccoc3)cnc(N3CCOCC3)c2n1` [CBK091292], the viability at 28.5 h, 10 µM is 88.7%.
Turning to `O=C(CN1C(=O)N2CCN=C2c2ccccc21)N1CCCC1` [CBK283945], the viability at 28.5 h, 10 µM amounted to 91.9%.
Same read-out and setting: the same measure for `COc1cccc(CN2CCN(C(=O)c3ccco3)[C@@H](C)C2)c1` [CBK284267]: 110%; for `O=C(Nc1ccc(Cl)cc1Cl)NC(Cc1ccc(O)cc1)C(=O)O` (centres unmarked) [CBK267386]: 90.9%.
Take `COc1ccc(C(=O)N2CC[C@H]3NC(=O)N(c4ccc(F)cc4)C(=O)[C@H]32)cc1` [CBK289325]: the viability at 28.5 h, 10 µM was 86.9%.
On to `COCCN1CCN(c2nc(-c3ccncc3)nc3c2CCC3)CC1` [CBK306101], for which the viability at 28.5 h, 10 µM was determined as 95.7%.
`O=C1Nc2ccc(-c3ccccc3F)cc2C(=O)N2CCN(C(=O)C3CCNCC3)C[C@H]12` [CBK289592]: the viability at 28.5 h, 10 µM was determined as 87.3%.
With `Cc1csc2ncc(C(=O)Nc3ccc(F)c(Cl)c3)c(=O)n12` [CBK287460], the viability at 28.5 h, 10 µM came to 107%.
Turning to `CC(=O)Nc1ccc(-c2cccc(COC3CCN(C(=O)Cc4cc(F)cc(F)c4F)CC3)c2)cc1` [CBK149489], the viability at 28.5 h, 10 µM came out at 89.2%.
Still for that read-out and setting: the result for `COC(=O)c1ccccc1NC(=O)CCSc1ccc(C)cc1` [CBK265958] reads 91.9%.
In the case of `Cc1nc(C)n(CC2CCCN(Cc3cc(C#N)cs3)C2)n1` (centres unmarked) [CBK304787], the viability at 28.5 h, 10 µM stood at 92%.
On to `CCN(CC)CCN(C(=O)NCCc1c[nH]c2ccc(OC)cc12)C(C)c1ccc(OC)c(OC)c1` (centres unmarked) [CBK158948], for which the viability at 28.5 h, 10 µM was 90.4%.
As to `COc1ccc(CN2CCC(c3ncc(C(=O)Nc4ccc(F)cc4)c(C)n3)CC2)cc1` [CBK285629], the viability at 28.5 h, 10 µM was found to be 101%.
In the case of `COc1cc(OC)nc(C(NC(=O)C2CCN(CCc3c[nH]c4ccccc34)CC2)c2ccccc2C)n1` (centres unmarked) [CBK148101], the viability at 28.5 h, 10 µM worked out at 104%.
In the case of `N=C(N)NCC(=O)N(CCCc1cc(C(F)(F)F)cc(C(F)(F)F)c1)c1ccc2c(c1)OCO2` [CBK000702T], the viability at 28.5 h, 10 µM is 80.1%.
In the case of `Nc1cc(S(=O)(=O)Nc2ccc(C(F)(F)F)cc2)ccc1N1CCCNCC1` [CBK001518C], the viability at 28.5 h, 10 µM was found to be 87.9%.
For `Cc1cc(C)cc(NC(=O)Cc2cc(=O)[nH]c(SCc3ccccc3)n2)c1` [CBK287842], the viability at 28.5 h, 10 µM amounted to 112%.
Turning to `Cc1noc(C)c1C(=O)NCCc1ccc(S(N)(=O)=O)cc1` [CBK268143], the viability at 28.5 h, 10 µM came out at 104%.
`COc1ccc2[nH]cc(CC(=O)Nc3cc(C)nc4ccccc34)c2c1` [CBK122732]: the viability at 28.5 h, 10 µM came to 88.8%.
On to `Cc1cc(NC(=O)CN2CC(C)CC(C)C2)nc2c1c(=O)oc1ccccc12` (centres unmarked) [CBK287620], for which the viability at 28.5 h, 10 µM stood at 108%.
Regarding `COc1cc(CNc2ncc(-c3ccc(N4CCOCC4)cc3)n3ccnc23)cc(OC)c1OC` [CBK091219], the viability at 28.5 h, 10 µM worked out at 100%.
Take `CC(Oc1ccc(Cl)cc1Cl)C(=O)NC1CC(C)(C)NC(C)(C)C1` (centres unmarked) [CBK263951C]: the viability at 28.5 h, 10 µM worked out at 90.3%.
As to `CC1CC(C(F)F)n2nc(C(=O)O)nc2N1` (centres unmarked) [CBK267636], the viability at 28.5 h, 10 µM was determined as 99.7%.
Regarding `O=C(O)c1ccccc1NC(=S)NC(=O)c1ccccc1[N+](=O)[O-]` [CBK264963], the viability at 28.5 h, 10 µM worked out at 96.2%.
Regarding `COC(=O)c1cc(OC)c(OC)cc1NC(=O)C1CCC1C(=O)O` (centres unmarked) [CBK057084], the viability at 28.5 h, 10 µM is 82.5%.
Still for that read-out and setting: the same measure for `CCN1C(=O)CC2(C1=O)C(=O)N(Cc1cccc(CN3C(=O)CCC3=O)c1)c1ccccc12` (centres unmarked) [CBK075508]: 104%.
As to `O=C(CC1S/C(=N/N=C/c2ccc(-c3ccc(Cl)c([N+](=O)[O-])c3)o2)NC1=O)Nc1ccccc1` (centres unmarked) [CBK264473], the viability at 28.5 h, 10 µM was 92.9%.
On the same count and under the same terms, the result for `CC(Cc1ccccn1)N(C)C(=O)c1cnn(-c2ccc(F)cc2)c1` (centres unmarked) [CBK283316] reads 99.6%; that for `N#Cc1ccc(NCC(=O)Nc2ccn(Cc3ccncc3)n2)cc1` [CBK306241], 89.7%; that for `O=C(NCc1cccnc1)N1CCCC(CO)C1` (centres unmarked) [CBK156037], 90.5%.
Turning to `CCCN1CCc2c(sc3nc(SCC(=O)c4ccccc4)n(-c4ccccc4)c(=O)c23)C1` [CBK262587], the viability at 28.5 h, 10 µM stood at 109%.
For the compound `COCCCNC(=O)c1cccs1` [CBK009164], the viability at 28.5 h, 10 µM worked out at 91.8%.
Consider `Cc1cccc(CN2CC[C@H]3[C@@H](C2)[C@H](c2ccsc2)CN3C(=O)c2ccccc2)c1` [CBK285619], for which the viability at 28.5 h, 10 µM came out at 106%.
As for `CCn1c2cc(C)oc2c2cnn(CC(=O)N(C)C)c(=O)c21` [CBK284224], the viability at 28.5 h, 10 µM was 83.4%.
With `Fc1ccc([C@@H]2COC[C@H]2NCc2ccsc2)cc1` [CBK282598], the viability at 28.5 h, 10 µM was determined as 100%.
Take `Cc1cccc2c1OCC[C@@H]2Oc1cncc(N2CCNCC2)n1` [CBK172310G]: the viability at 28.5 h, 10 µM was found to be 101%.
As for `C=CCn1cc(CN2CCc3c(nc(C)[nH]c3=O)C2)c2ccccc21` [CBK283992], the viability at 28.5 h, 10 µM worked out at 97.5%.
Regarding `Nc1ccc(Oc2ccc(-n3c(=O)c4cc5c(=O)n(-c6ccc(Oc7ccc(N)cc7)cc6)c(=O)c5cc4c3=O)cc2)cc1` [CBK261489], the viability at 28.5 h, 10 µM turned out to be 104%.
For `NS(=O)(=O)c1ccc(NC(=S)NNC(=O)c2cc(Br)ccc2Cl)cc1` [CBK266970], the viability at 28.5 h, 10 µM worked out at 89.3%.
Consider `CC(=O)Nc1cccc(-c2nccnc2C2CCCN(CCc3ccccc3)C2)c1` (centres unmarked) [CBK286128], for which the viability at 28.5 h, 10 µM was found to be 110%.
Take `CC(C)CN1C(=O)COC[C@@H]1[C@H](O)c1ccc(NC(=O)C2CCCCC2)cc1` [CBK289687]: the viability at 28.5 h, 10 µM was 106%.
On to `O=[N+]([O-])c1cnc(NS(=O)(=O)c2cccc(C(F)(F)F)c2)s1` [CBK067533], for which the viability at 28.5 h, 10 µM turned out to be 104%.
In the case of `Cc1ncc([N+](=O)[O-])n1CCOC(=O)NC(N1CCOCC1)C(Cl)(Cl)Cl` (centres unmarked) [CBK261299], the viability at 28.5 h, 10 µM was found to be 103%.
The same measure, in the same setting: the result for `CCc1ccc(Oc2cc(N3CCC(C(=O)NC4CC4)CC3)ncn2)cc1` [CBK287854] reads 102%.
`COc1cncc(-c2ccc(N3CCN(CCN(C)C)CC3)nc2)c1` [CBK037720]: the viability at 28.5 h, 10 µM came out at 88.9%.
Regarding `CCOC(=O)Cc1csc(NS(=O)(=O)c2ccc(Br)cc2C)n1` [CBK200027], the viability at 28.5 h, 10 µM worked out at 96.2%.
As for `CC(C)c1ccc2c(c1)C(N1CCN(C)CC1)Cc1cccnc1S2` (centres unmarked) [CBK026244G], the viability at 28.5 h, 10 µM turned out to be 98.7%.
As to `CCOC(=O)COc1ccc(S(=O)(=O)N2CCN(Cc3ccc4c(c3)OCO4)CC2)cc1` [CBK074492], the viability at 28.5 h, 10 µM was determined as 101%.
Take `CC(C)(C)O/N=C/c1cccnc1` [CBK015761C]: the viability at 28.5 h, 10 µM came out at 109%.
Take `CC(=O)c1ccc(-c2nccnc2N[C@@H](CO)C(C)C)s1` [CBK037404]: the viability at 28.5 h, 10 µM was 100%.
On to `COc1ccc2[nH]cc(CC(=O)Nc3nc4c(OC)cccc4s3)c2c1` [CBK149279], for which the viability at 28.5 h, 10 µM was determined as 97.8%.
As for `CC1(CNC(=O)c2cc(-c3ccc(F)cc3)no2)COC1` [CBK281757], the viability at 28.5 h, 10 µM amounted to 84.2%.
As to `O=C(CCOc1ccccc1F)Nc1cnc(-c2ccc(F)cc2)c(-c2ccsc2)n1` [CBK036897], the viability at 28.5 h, 10 µM came out at 99.7%.
Consider `CC(C)(C)SCCNc1nc(Cl)nc(N2CCSCC2)n1` [CBK018768], for which the viability at 28.5 h, 10 µM came to 80.2%.
Regarding `Cc1n[nH]c(C)c1CCC(=O)N/N=C/c1ccc(Cl)cc1Cl` [CBK262901], the viability at 28.5 h, 10 µM was 86.6%.
On the same count and under the same terms, the same measure for `O=C(Cn1c[n+]([N-][N+](=O)[O-])cn1)Nc1ncc(Br)cc1Br` [CBK262342]: 90.9%; for `COc1ccc2c(c1)C(=O)NC1(CCN(C(=O)c3ccc(OC)c(C)c3)CC1)O2` [CBK166291]: 106%.
For `O=C(CN1C(=O)c2ccccc2S1(=O)=O)N(Cc1ccccc1)Cc1ccccc1` [CBK265982], the viability at 28.5 h, 10 µM is 107%.
Take `CCOC(=O)C(C)NC(=O)c1ccc2nc(C)sc2c1` (centres unmarked) [CBK282508]: the viability at 28.5 h, 10 µM stood at 85.5%.
Regarding `Cn1c(CCNC(=O)C2CCCCC2)nc2cc([N+](=O)[O-])ccc21` [CBK268440], the viability at 28.5 h, 10 µM is 106%.
In the case of `COC(=O)c1ccccc1NC(=O)CSc1nnc(-c2ccccc2Cl)[nH]1` [CBK265966], the viability at 28.5 h, 10 µM is 95.4%.
Consider `O=C(O)CSc1ccc(Cl)cc1` [CBK115571], for which the viability at 28.5 h, 10 µM worked out at 88.4%.
Same read-out and setting: the same measure for `COC(=O)c1ccc2c(=O)n(CC(C)O)c(SC3CCOC3=O)nc2c1` (centres unmarked) [CBK304997]: 84.7%; for `Cc1cc(CN2CCN(S(=O)(=O)c3ccc(C(=O)c4ccccc4)cc3)CC2)cc(C)c1O` [CBK062933]: 90.4%; for `O=C(CC(CC(=O)c1ccc(Cl)cc1)c1ccccc1C(=O)O)c1ccc(Cl)cc1` [CBK265604]: 93.6%.
